Results on 20 compounds are retold here after ChEMBL document CHEMBL1131945, “Nonpeptide small-molecular inhibitors of dipeptidyl peptidase IV: N-phenylphthalimide analogs” (Bioorg Med Chem Lett, 1999).

Several values for one entry are separate records, joined by “and”; a condition that tells them apart may be missing. Identical values can stand only once. Where only a bound is given, the exact number is not on record here.

One assay has as its target Dipeptidyl peptidase 4 (Homo sapiens, UniProt P27487). The assay can be described thus: Inhibitory activity against Dipeptidylpeptidase IV (DPP IV) in human acute lymphoblastic leukemia MOLT-4 cell line. Format: cell-based.
Assay [1] is described as follows: Cytotoxicity in human embryonic lung flbroblast Wl-38 cells using WST-1 viability assay.
Another assay addresses Aminopeptidase N (Homo sapiens, UniProt P15144). Briefly: Inhibitory activity against aminopeptidase N (APN) in human acute lymphoblastic leukemia MOLT-4 cell line. Format: cell-based.

Chain of Aminopeptidase N (P15144 whole entry): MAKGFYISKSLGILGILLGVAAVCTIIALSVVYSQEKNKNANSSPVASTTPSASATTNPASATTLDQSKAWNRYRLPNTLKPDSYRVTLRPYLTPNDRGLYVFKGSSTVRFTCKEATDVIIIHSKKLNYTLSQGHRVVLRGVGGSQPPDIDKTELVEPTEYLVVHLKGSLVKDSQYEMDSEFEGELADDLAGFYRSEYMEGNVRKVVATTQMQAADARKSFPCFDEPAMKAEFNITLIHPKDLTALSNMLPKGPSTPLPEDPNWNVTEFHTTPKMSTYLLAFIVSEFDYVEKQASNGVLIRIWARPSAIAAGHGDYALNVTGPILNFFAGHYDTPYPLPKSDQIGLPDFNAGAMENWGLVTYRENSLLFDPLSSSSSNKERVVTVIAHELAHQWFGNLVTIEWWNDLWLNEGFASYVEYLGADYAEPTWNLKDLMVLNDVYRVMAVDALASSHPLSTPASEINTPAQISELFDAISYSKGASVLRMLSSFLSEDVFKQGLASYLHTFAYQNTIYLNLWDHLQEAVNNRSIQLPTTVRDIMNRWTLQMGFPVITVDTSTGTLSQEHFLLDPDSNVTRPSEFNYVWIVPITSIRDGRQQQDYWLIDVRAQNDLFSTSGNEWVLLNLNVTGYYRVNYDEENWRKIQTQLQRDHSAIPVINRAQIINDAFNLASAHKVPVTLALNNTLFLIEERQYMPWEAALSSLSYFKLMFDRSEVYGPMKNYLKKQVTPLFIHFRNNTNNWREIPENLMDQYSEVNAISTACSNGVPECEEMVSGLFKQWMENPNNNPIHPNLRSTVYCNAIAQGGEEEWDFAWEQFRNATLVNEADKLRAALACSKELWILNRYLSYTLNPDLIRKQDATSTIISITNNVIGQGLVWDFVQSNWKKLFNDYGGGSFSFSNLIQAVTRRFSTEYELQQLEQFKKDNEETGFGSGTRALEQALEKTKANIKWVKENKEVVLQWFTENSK
Chain of Dipeptidyl peptidase 4 (P27487 whole entry): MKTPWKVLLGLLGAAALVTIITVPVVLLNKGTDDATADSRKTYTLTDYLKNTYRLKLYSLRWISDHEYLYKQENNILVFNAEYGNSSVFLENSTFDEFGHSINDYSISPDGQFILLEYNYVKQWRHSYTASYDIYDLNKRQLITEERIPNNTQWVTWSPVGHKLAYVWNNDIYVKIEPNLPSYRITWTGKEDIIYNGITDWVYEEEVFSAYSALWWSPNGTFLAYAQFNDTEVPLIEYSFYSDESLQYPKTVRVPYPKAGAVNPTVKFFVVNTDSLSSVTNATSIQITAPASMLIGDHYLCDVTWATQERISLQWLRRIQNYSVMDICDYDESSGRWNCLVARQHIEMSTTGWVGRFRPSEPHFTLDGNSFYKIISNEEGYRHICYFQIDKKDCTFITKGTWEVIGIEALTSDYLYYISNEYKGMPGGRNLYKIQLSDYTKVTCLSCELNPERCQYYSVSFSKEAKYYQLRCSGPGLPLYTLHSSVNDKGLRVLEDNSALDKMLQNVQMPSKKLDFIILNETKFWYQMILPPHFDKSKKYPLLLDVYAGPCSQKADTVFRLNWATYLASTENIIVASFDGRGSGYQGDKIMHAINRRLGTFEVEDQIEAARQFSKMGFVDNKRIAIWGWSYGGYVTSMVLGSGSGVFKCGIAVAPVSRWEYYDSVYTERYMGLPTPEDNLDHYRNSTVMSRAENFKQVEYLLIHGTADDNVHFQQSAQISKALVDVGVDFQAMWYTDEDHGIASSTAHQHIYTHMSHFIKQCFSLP

As for `CC(C)c1cccc(C(C)C)c1N1C(=O)c2ccccc2C1=O`, the results for the IC50 (against Dipeptidyl peptidase 4; in assay [1]) were over 325 µM and over 100 µg/mL, respectively.

Consider `CSc1ccccc1N1C(=O)c2cccc([N+](=O)[O-])c2C1=O`, for which the IC50 on Dipeptidyl peptidase 4 was over 318 µM; at Aminopeptidase N, over 318 µM; in assay [1], over 100 µg/mL.

For the compound `CC(C)c1cccc(C(C)C)c1N1C(=S)c2c(F)c(F)c(F)c(F)c2C1=S`, the IC50 on Dipeptidyl peptidase 4 was 36.7 µM; in assay [1] it was 1.4 µg/mL and 3.4 µM.

In the case of `Cc1cccc(C)c1N1C(=O)c2cccc(O)c2C1=O`, the figures for the IC50 (against Dipeptidyl peptidase 4; in assay [1]) were over 374 µM and over 100 µg/mL, respectively.

In the case of `Cc1cccc(C)c1N1C(=O)c2cccc([N+](=O)[O-])c2C1=O`, the 50% inhibitory concentration (IC50) on Dipeptidyl peptidase 4 was over 338 µM; against Aminopeptidase N, over 338 µM; in assay [1] it was over 100 µg/mL.

`CC(C)c1cccc(C(C)C)c1N1C(=O)c2ccc(N)cc2C1=O`: the IC50 in assay [1] was > 100 µg/mL and > 310 µM.

`CCc1cccc(CC)c1N1C(=O)c2cccc(O)c2C1=O`: the IC50 at Dipeptidyl peptidase 4 is 43.3 µM; in assay [1], > 100 µg/mL and > 339 µM.

Regarding `Cc1cccc(C)c1N1C(=O)c2ccc(N)cc2C1=O`, in assay [1], the IC50 was > 100 µg/mL and > 376 µM.

`CC(C)c1cccc(C(C)C)c1N1C(=O)c2cccc([N+](=O)[O-])c2C1=O`: the IC50 on Dipeptidyl peptidase 4 was over 284 µM; in assay [1] it was 93.1 µg/mL and 264 µM.

`Cc1cccc(C)c1N1C(=O)c2ccccc2C1=O`: the IC50 was over 398 µM against Dipeptidyl peptidase 4 and over 100 µg/mL in assay [1].

In the case of `CC(C)c1cccc(C(C)C)c1N1C(=O)c2ccc([N+](=O)[O-])cc2C1=O`, the IC50 against Dipeptidyl peptidase 4 is over 284 µM; in assay [1], 42.7 µg/mL and 121 µM.

As for `Cc1cccc(C)c1N1C(=O)c2ccc([N+](=O)[O-])cc2C1=O`, the IC50 was over 338 µM against Dipeptidyl peptidase 4, over 338 µM against Aminopeptidase N and over 100 µg/mL in assay [1].

On to `CCc1cccc(CC)c1N1C(=O)c2ccc(O)cc2C1=O`, for which the IC50 in assay [1] is 52 µg/mL and 176 µM.

For `CC(C)c1cccc(C(C)C)c1N1C(=O)c2ccccc2C1=S`, the IC50 on Dipeptidyl peptidase 4 is 57.8 µM; at Aminopeptidase N, > 309 µM and 309 µM; in assay [1], 60.5 µg/mL and 187 µM.

Consider `CC(C)c1cccc(C(C)C)c1N1C(=O)c2c(F)c(F)c(F)c(F)c2C1=S`, for which the IC50 on Dipeptidyl peptidase 4 was 30.3 µM and 30.4 µM; in assay [1] it was > 100 µg/mL and > 253 µM.

Take `CC(C)c1cccc(C(C)C)c1N1C(=O)c2ccc(O)cc2C1=O`: the IC50 in assay [1] was 12.7 µg/mL and 39.3 µM.

For `Cc1cccc(C)c1N1C(=O)c2ccc(O)cc2C1=O`, the IC50 in assay [1] is > 100 µg/mL and > 374 µM.

In the case of `CC(C)c1cccc(C(C)C)c1N1C(=O)c2cccc(O)c2C1=O`, the concentration for half-maximal inhibition (IC50) in assay [1] was > 100 µg/mL and > 309 µM.

`Cc1cccc(C)c1N1C(=O)c2cccc(N)c2C1=O`: the IC50 against Dipeptidyl peptidase 4 was 60.1 µM; against Aminopeptidase N, 109 µM; in assay [1], > 100 µg/mL and > 376 µM.

As to `CSc1ccccc1N1C(=O)c2cccc(O)c2C1=O`, the IC50 is 226 µM on Dipeptidyl peptidase 4; 134 µM at Aminopeptidase N; > 100 µg/mL and > 350 µM in assay [1].
